Assay results reported in patent publication US20140377219A1, “HIV INHIBITORS” (New york Blood Center, Inc., priority 2011, published 2014).
Structures can show the parent of a compound that is named as a salt. Where two headings read alike, the source gives them in different places.

What was measured:
[1] = system: TZM-bl cells; test: Cytotoxicity in TZM-bl cells (XTT); type: cell-based; conditions: for % toxicity at that dose (number in parenthesis), TZM-bl cells: at the dose given as CC50 bound
Procedure: (§1) The cytotoxicity of small molecules in TZM-bl cells was measured by a colorimetric method using XTT (sodium 3′-(1-(phenylamino)-carbonyl)-3,4-tetrazolium-bis(4-methoxy-6-nitro)benzenesulfonic acid hydrate), a light yellowish tetrazolium dye. Briefly, 100 μl of a compound at graded concentrations was added to equal volume of cells (10^5/ml) in wells of 96-well plates followed by incubation at 37° C. for 3 days and addition of XTT (PolySciences, Inc., Warrington, Pa.).

[2] = system: laboratory-adapted HIV-1 IIIB strain; test: microbe, parasite or virus in culture; conditions: Human immunodeficiency virus 1, IIIB, MT2, read-out: MT-2 Cells IC50 (μM ± SD)
Procedure: (§3) In brief, 1×10^4 MT-2 cells were infected with HIV-1 at 100 TCID50 (50% tissue culture infective dose) (0.01MOI) in 200 μl medium in the presence or absence of small molecules at graded concentrations and incubated overnight. The culture supernatants were then removed and replaced with fresh media. On the fourth day post-infection, 100 μl of culture supernatants were collected from each well, mixed with equal volume of 5% Triton X-100 and tested for p24 antigen by sandwich-ELISA. The percent inhibition of p24 production and IC50 values were calculated by the GraphPad Prism software (GraphPad Software Inc.).

[3] = system: MT-2 cells; test: Cytotoxicity in MT-2 cells (XTT); type: cell-based
Procedure: (§2) Cytotoxicity of small molecules in MT-2 cells and PBMC was measured by the XTT ((sodium 3′-(1-(phenylamino)-carbonyl)-3,4-tetrazolium-bis(4-methoxy-6-nitro)benzene-sulfonic acid hydrate)) method. Briefly, for MT-2 cells, 100 μl of a small molecule at graded concentrations was added to an equal volume of cells (10^5 cells/ml) in 96-well plates followed by incubation at 37° C. for four days, which ran parallel with the neutralization assay in MT-2 (except medium was added instead of virus). In the case of PBMC, 5×10^5 cells/ml was used and the cytotoxicity was measured after seven days. […] The percentage cytotoxicity and the CC50 values were calculated as described above.

[4] = system: laboratory-adapted HIV-1 IIIB strain; conditions: read-out: MT-2 Cells IC50 (μM ± SD); multi-cycle assay, MT-2 cells, HIV-1 IIIB
Procedure: as §3

[5] = Cytotoxicity in TZM-bl cells (XTT); type: cell-based; conditions: human; TZM-bl cells, XTT, 3 days; read-out: TZM-bl cells CC50 (μM ± SD)
Procedure: as §1

[6] = Cytotoxicity in MT-2 cells (XTT); type: cell-based; conditions: human; MT-2 cells, XTT, four days
Procedure: as §2

[7] = MT-2 cells, XTT, four days, read-out: MT-2 Cells CC50
[8] = TZM-bl cells, XTT, 3 days, read-out: TZM-bl cells CC50 (μM ± SD)

SMILES | IC50 [2] | melting point | IC50 [4] | CC50 at 3 days [5] | CC50 at 4 days [6] | other results
CC(=O)N1CCCCC1C(NC(=O)C(=O)Nc1ccc(Cl)cc1)c1nc(C)c(CCO)s1 (centres unmarked) [Compound 13, N^1-((1-acetylpiperidin-2-yl)(5-(2-hydroxyethyl)-4-methylthiazol-2-yl)methyl)-N^2-(4-chlorophenyl)oxalamide] | > 52 µM | – | – | – | – | % toxicity at that dose (number in parenthesis), TZM-bl cells [1]: 20%
CCn1cc(NC(=O)C(=O)Nc2ccc(Cl)cc2)cn1 [Compound 17, N^1-(4-chlorophenyl)-N^2-(1-ethyl-1H-pyrazol-4-yl)oxalamide] | – | 232 to 233 °C | – | – | – | CC50 [3, 7]: 10.7 ± 1.6 µM
C[C@@H](NC(=O)C(=O)Nc1ccc(Cl)cc1)[C@H](c1ccccc1)N1CCOCC1 [Compound 19, N^1-(4-chlorophenyl)-N^2-((1S,2R)-1-morpholino-1-phenylpropan-2-yl)oxalamide] | > 24.9 µM | – | – | – | – | –
Cc1nc(C(NC(=O)C(=O)NC2CCCCCC2)C2CCCCN2)sc1CCO (centres unmarked) [Compound 40, N^1-cycloheptyl-N^2-((5-(2-hydroxyethyl)-4-methylthiazol-2-yl)(piperidin-2-yl)methyl)oxalamide.HCl] | – | – | 19.6 ± 4 µM | – | – | CC50 [1, 8]: > 88 µM; CC50 [3, 7]: ~60 µM
Cc1nc(C(NC(=O)CCC(=O)Nc2ccc(Cl)cc2)C2CCCN2)sc1CO (centres unmarked) [Compound 41, N^1-(4-chlorophenyl)-N^4-((5-(hydroxymethyl)-4-methylthiazol-2-yl)(pyrrolidin-2-yl)methyl)succinamide.HCl] | – | – | > 42 µM | – | – | CC50 [1]: > 85 µM; CC50 [3]: > 85 µM
O=C(CCC(=O)Nc1ccc(Cl)cc1)NCc1ccc(S(=O)(=O)N2CCOCC2)cc1 [Compound 42, N^1-(4-chlorophenyl)-N^4-(4-(morpholinosulfonyl)benzyl)succinamide] | 23.9 ± 1.8 µM | 208 to 209 °C (dec.) | – | ~30 µM | 21.2 ± 1.5 µM | –
O=C(CCC(=O)Nc1ccc(Cl)cc1)NCCCN1CCCC(O)C1 (centres unmarked) [Compound 43, N^1-(4-chlorophenyl)-N^4-(3-(3-hydroxypiperidin-1-yl)propyl)succinamide] | ~109 µM | 122 to 123 °C | – | ~82 µM | ~109 µM | –
O=C(CCC(=O)Nc1ccc(Cl)cc1)NCCCN1CCC(O)CC1 [Compound 44, N^1-(4-chlorophenyl)-N^4-(3-(4-hydroxypiperidin-1-yl)propyl)succinamide] | > 109 µM | 154 to 155 °C | – | ~109 µM | > 109 µM | –
CC1CCCN(c2ccccc2CNC(=O)CCC(=O)Nc2ccc(Cl)cc2)C1 (centres unmarked) [Compound 45, N^1-(4-chlorophenyl)-N^4-(2-(3-methylpiperidin-1-yl)benzyl)succinamide] | > 97 µM | 162 to 163 °C | – | > 97 µM | > 97 µM | –
CCC(CN1CCOCC1)NC(=O)CCC(=O)Nc1ccc(Cl)cc1 (centres unmarked) [Compound 46, N^1-(4-chlorophenyl)-N^4-(1-morpholinobutan-2-yl)succinamide] | 33.2 ± 2.2 µM | – | – | > 109 µM | 41.9 ± 1.6 µM | –
CN1CCN(C(=O)CNC(=O)CCC(=O)Nc2ccc(Cl)cc2)CC1 [Compound 47, N^1-(4-chlorophenyl)-N^4-(2-(4-methylpiperazin-1-yl)-2-oxoethyl)succinamide .HCOOH] | – | – | ~48 µM | – | – | CC50 [1]: ~36 µM; CC50 [3]: ~97 µM
CC(C)c1nccn1CCCNC(=O)CCC(=O)Nc1ccc(Cl)cc1 [Compound 48, N^1-(4-chlorophenyl)-N^4-(3-(2-isopropyl-1H-imidazol-1-yl)propyl)succinamide. HCOOH] | – | – | > 36 µM | – | – | CC50 [1]: > 95 µM; CC50 [3]: > 95 µM
Cc1nccn1CCCNC(=O)CCC(=O)Nc1ccc(Cl)cc1 [Compound 49, N^1-(4-chlorophenyl)-N^4-(3-(2-methyl-1H-imidazol-1-yl)propyl)succinamide. HCOOH] | – | – | > 38 µM | – | – | CC50 [1]: 102 µM; CC50 [3]: > 102 µM
Cc1nc2ncccn2c1CN1CCC(NC(=O)CCC(=O)Nc2ccc(Cl)cc2)CC1 [Compound 50, N^1-(4-chlorophenyl)-N^4-(1-((2-methylimidazo[1,2-a]pyrimidin-3-yl)methyl)piperidin-4-yl)succinamide] | > 33 µM | – | – | > 88 µM | > 88 µM | –
Cc1nc(C(NC(=O)CCC(=O)Nc2ccc(Cl)cc2)C2CCCCN2)sc1CO.Cl (centres unmarked) [Compound 51, N^1-(4-chlorophenyl)-N^4-((5-(hydroxymethyl)-4-methylthiazol-2-yl)(piperidin-2-yl)methyl)succinamide.HCl] | – | – | ~40 µM | – | – | CC50 [1, 8]: > 82 µM; % toxicity at that dose (number in parenthesis), TZM-bl cells [1]: 0%; CC50 [3, 7]: > 82 µM; % toxicity at that dose (number in parenthesis), MT-2 cells ([3]; at the dose given as CC50 bound): 20%
